Experiment [1] has as its target T1, ERK2 (Homo sapiens, UniProt P28482).
T1 construct: purchased R&D 1879-KS-010
The experiment is described as follows: ERK2 enzyme activity test (ADP-Glo Kinase Assay). Format: biochemical. The conditions noted are these: read-out: IC50 value of the inhibition on ERK2 enzyme activity. On the procedure:
(§1) The purpose of this experiment is to detect the inhibitory ability of the compounds on the ERK2 enzyme activity, and evaluate the in vitro activity of the compounds based on the IC50. The ADP-Glo™ Kinase Assay Kit is used in this experiment. Under the action of the enzyme, the substrate is phosphorylated and ADP is produced at the same time. The ADP-Glo reagent is added to remove the unreacted ATP in the reaction system, and the ADP produced by the reaction is detected by the kinase detection reagent. In the presence of the compound, the inhibition rate of the compound is calculated by measuring the signal value.
(§2) ATP was diluted to 500 μM with the buffer. The compound was dissolved in DMSO to prepare a stock solution with an initial concentration of 20 mM, and then Bravo (SGC120TH34702, Agilent Technologies) was used to dilute the stock solution to desired concentrations. Finally, a 3 μL of a mixed solution of enzyme and substrate, and 1 μL of different concentrations of the compound (the initial concentration is 50 μM, 4-fold dilution) were added to each well of the 384-well plate, and the plate was incubated at 30° C. for 10 minutes, and finally 1 μL of 500 μM ATP solution was added to each well, and the plate was incubated at 30° C. for 2 hours. Then 5 μL of ADP-Glo was added, and the plate was incubated at 30° C. for 40 minutes. Then 10 μL of kinase detection buffer was added, and the plate was incubated at 30° C. for 40 minutes. The 384-well plate was taken out and placed in a microplate reader (BMG labtech, PHERAstar FS), and the chemiluminescence was measured by the microplate reader.
(§3) Microsoft Excel, Graphpad Prism 5 was used to process and analyze the data.

Experiment [2] concerns Colo205 cells. In words: In vitro proliferation inhibition test on Colo205 tumor cells (CellTiter-Glo). Format: cell-based. The following applies: Homo sapiens, COLO 205, 72 h; 3 days of culture, CTG; read-out: IC50 value of the inhibition on in vitro Colo205 tumor cell proliferation. On the procedure:
The purpose of this experiment is to test the inhibitory activity of the compounds on the proliferation of Colo205 cells (CCL-222, ATCC) in vitro. The cells were treated in vitro with different concentrations of the compounds. After 3 days of culture, the cell proliferation was tested with CTG (CellTiter-Glo® Luminescent Cell Viability Assay, Promega, Catalog No. G7573) reagent, and the in vitro activity of the compounds was evaluated according to the IC50 value.
In the following, taking the in vitro proliferation inhibition test method of Colo205 cells as an example, the method in the present disclosure for testing the in vitro proliferation inhibitory activity of the compounds of the present disclosure is described. This method is also applicable to, but not limited to, the in vitro proliferation inhibitory activity test on other tumor cells.
Colo205 cells were digested, centrifuged and then resuspended. The single cell suspension was mixed well, and the density of viable cells was adjusted to 5.0×10^4 cells/ml with cell culture medium (RPMI1640+2% FBS), and 95 μl/well was added to a 96-well cell culture plate. Only 100 μl medium was added to the peripheral wells of the 96-well plate. The culture plate was incubated in an incubator for 24 hours (37° C., 5% CO2).
The compound was dissolved in DMSO and prepared into a stock solution with an initial concentration of 20 mM. The initial concentration of the small molecule compound was 2 mM, and then 4-fold diluted into 9 points, and the 10th point is DMSO. Another 96-well plate was taken and 90 μl of cell culture medium (RPMI1640+2% FBS) was added to each well, then 10 μl of different concentrations of the test sample was added to each well. The mixture was mixed well, and then 5 μL of different concentrations of the test sample was added to the cell culture plate with duplicate well for each sample. The culture plate was incubated in an incubator for 3 days (37° C., 5% CO2). The 96-well cell culture plate was taken out, 50 μL CTG solution was added to each well, and the plate was incubated for 10 minutes at room temperature. In a microplate reader (BMG labtech, PHERAstar FS), chemiluminescence was measured with the microplate reader.
as §3

The target in experiment [3] is T2, ERK1 (Homo sapiens, UniProt P27361).
T2 construct: purchased R&D 1879-KS-010
T2 sequence (P27361 whole entry): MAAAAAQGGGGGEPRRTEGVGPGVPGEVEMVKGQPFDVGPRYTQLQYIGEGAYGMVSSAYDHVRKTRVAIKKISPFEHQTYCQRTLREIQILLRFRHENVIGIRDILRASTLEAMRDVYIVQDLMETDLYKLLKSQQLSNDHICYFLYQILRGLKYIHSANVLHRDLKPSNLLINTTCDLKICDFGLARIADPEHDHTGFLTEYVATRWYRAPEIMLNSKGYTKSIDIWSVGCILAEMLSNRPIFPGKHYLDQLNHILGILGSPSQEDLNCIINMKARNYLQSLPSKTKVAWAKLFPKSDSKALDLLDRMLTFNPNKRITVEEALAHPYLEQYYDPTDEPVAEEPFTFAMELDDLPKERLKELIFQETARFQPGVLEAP
The experiment is described as follows: ERK1 enzyme activity test (ADP-Glo Kinase Assay). Format: biochemical. The conditions noted are these: read-out: IC50 value of the inhibition on ERK1 enzyme activity. As for the experimental part: as §1, with “the ERK1” for “the ERK2”, “detected with” for “detected by”
as §2, with “diluted to 300 μM with” for “diluted to 500 μM with”, “Finally, a […] of” for “Finally, a 3 μL of”, “and 1 μL, of different” for “and 1 μL of different”, “μL of 300 μM ATP” for “μL of 500 μM ATP”, “μL of Kinase detection buffer” for “μL of kinase detection buffer”
as §3

T1 sequence (P28482 2-360 limits assumed): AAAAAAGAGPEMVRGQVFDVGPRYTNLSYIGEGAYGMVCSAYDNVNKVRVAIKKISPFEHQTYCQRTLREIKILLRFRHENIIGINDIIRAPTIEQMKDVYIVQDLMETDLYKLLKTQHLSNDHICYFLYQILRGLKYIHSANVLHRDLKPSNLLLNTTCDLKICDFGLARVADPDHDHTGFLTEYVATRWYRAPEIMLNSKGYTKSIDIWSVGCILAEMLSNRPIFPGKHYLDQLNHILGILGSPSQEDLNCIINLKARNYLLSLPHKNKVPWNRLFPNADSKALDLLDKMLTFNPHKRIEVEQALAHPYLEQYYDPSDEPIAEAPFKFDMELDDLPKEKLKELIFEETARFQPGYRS

Turning to `Cn1nccc1Nc1ncc(Cl)c(-c2cc3n(c2)C(=O)N([C@H](CO)c2cccc(Cl)c2)C3)n1` [Example 2, (S)-6-(5-Chloro-2-((1-methyl-1H-pyrazol-5-yl)amino)pyrimidin-4-yl)-2-(1-(3-chlorophenyl)-2-hydroxyethyl)-1H-pyrrolo[1,2-c]imidazol-3(2H)-one], the IC50 was 3 nM in experiment [1] and 32 nM in experiment [2].
`Cc1cnc(Nc2ccnn2C)nc1-c1cc2n(c1)C(=O)N([C@H](CO)c1ccc(F)c(Cl)c1)C2` [Example 6, (S)-2-(1-(3-Chloro-4-fluorophenyl)-2-hydroxyethyl)-6-(5-methyl-2-((1-methyl-1H-pyrazol-5-yl)amino)pyrimidin-4-yl)-1H-pyrrolo[1,2-c]imidazol-3(2H)-one]: the IC50 turned out to be 14 nM in experiment [3], 10 nM in experiment [1] and 74 nM in experiment [2].
As to `Cc1cnc(Nc2ccnn2C)nc1-c1cc2n(c1)C(=O)N([C@H](C)c1cccc(Cl)c1)C2` [Example 12, (R)-2-(1-(3-Chlorophenyl)ethyl)-6-(5-methyl-2-((1-methyl-1H-pyrazol-5-yl)amino)pyrimidin-4-yl)-1H-pyrrolo[1,2-c]imidazol-3(2H)-one], the IC50 in experiment [1] turned out to be 45 nM.
As for `Cn1nccc1Nc1nccc(-c2cc3n(c2)C(=O)N([C@H](CO)c2ccc(Cl)cc2)C3)n1` [Example 21, (S)-2-(1-(4-Chlorophenyl)-2-hydroxyethyl)-6-(2-((1-methyl-1H-pyrazol-5-yl)amino)pyrimidin-4-yl)-1H-pyrrolo[1,2-c]imidazol-3(2H)-one], the IC50 in experiment [3] was 67 nM; in experiment [1], 45 nM; in experiment [2] it was 120 nM.
The like results for `Cn1nccc1Nc1nccc(-c2cc3n(c2)C(=O)N([C@H](CO)c2cccc(F)c2)C3)n1` [Example 19, (S)-2-(1-(3-Fluorophenyl)-2-hydroxyethyl)-6-(2-((1-methyl-1H-pyrazol-5-yl)amino)pyrimidin-4-yl)-1H-pyrrolo[1,2-c]imidazol-3(2H)-one] were, in that order, 24 nM, 20 nM and 101 nM.
The like results for `Cn1nccc1Nc1nccc(-c2cc3n(c2)C(=O)N([C@H](CO)c2ccc(F)c(Cl)c2)C3)n1` [Example 16, (S)-2-(1-(3-Chloro-4-fluorophenyl)-2-hydroxyethyl)-6-(2-((1-methyl-1H-pyrazol-5-yl)amino)pyrimidin-4-yl)-1H-pyrrolo[1,2-c]imidazol-3(2H)-one] were, in that order, 70 nM, 44 nM and 180 nM.
For `O=C1N([C@H](CO)c2cccc(Cl)c2)Cc2cc(-c3nc(NC4CC(O)C(F)C4)ncc3Cl)cn21` (stereo partly drawn) [Example 7, 6-(5-Chloro-2-((3-fluoro-4-hydroxycyclopentyl)amino)pyrimidin-4-yl)-2-((S)-1-(3-chlorophenyl)-2-hydroxyethyl)-1H-pyrrolo[1,2-c]imidazol-3(2H)-one], the values for the IC50 in experiment [1] and in experiment [2] were 63 nM and 158 nM, respectively.
Turning to `C[C@@H](CO)Nc1ncc(Cl)c(-c2cc3n(c2)C(=O)N([C@H](CO)c2cccc(Cl)c2)C3)n1` [Example 5, 6-(5-Chloro-2-(((S)-1-hydroxypropan-2-yl)amino)pyrimidin-4-yl)-2-((S)-1-(3-chlorophenyl)-2-hydroxyethyl)-1H-pyrrolo[1,2-c]imidazol-3(2H)-one], the IC50 worked out at 10 nM in experiment [3] and 81 nM in experiment [2].
As for `Cc1cnc(Nc2ccnn2C)nc1-c1cc2n(c1)C(=O)N([C@H](CO)c1ccc(Cl)c(F)c1)C2` [Example 14, (S)-2-(1-(4-Chloro-3-fluorophenyl)-2-hydroxyethyl)-6-(5-methyl-2-((1-methyl-1H-pyrazol-5-yl)amino)pyrimidin-4-yl)-1H-pyrrolo[1,2-c]imidazol-3(2H)-one], the IC50 in experiment [1] amounted to 5 nM; in experiment [2], 92 nM.
With `CNC[C@H](c1cccc(Cl)c1)N1Cc2cc(-c3nc(Nc4ccnn4C)ncc3C)cn2C1=O` [Example 13, (S)-2-(1-(3-Chlorophenyl)-2-(methylamino)ethyl)-6-(5-methyl-2-((1-methyl-1H-pyrazol-5-yl)amino)pyrimidin-4-yl)-1H-pyrrolo[1,2-c]imidazol-3(2H)-one], the figures for the IC50 in experiment [3], in experiment [1] and in experiment [2] were 2 nM, 2 nM and 99 nM, respectively.
For `Cc1cnc(Nc2ccnn2C)nc1-c1cc2n(c1)C(=O)N([C@H](CN)c1cccc(Cl)c1)C2` [Example 11, (S)-2-(2-Amino-1-(3-chlorophenyl)ethyl)-6-(5-methyl-2-((1-methyl-1H-pyrazol-5-yl)amino)pyrimidin-4-yl)-1H-pyrrolo[1,2-c]imidazol-3(2H)-one], the IC50 in experiment [1] turned out to be 18 nM.
`Cc1cnc(Nc2ccnn2C)nc1-c1cc2n(c1)C(=O)N([C@H](CO)c1cccc(Cl)c1)CC2` [Example 9, (S)-2-(1-(3-Chlorophenyl)-2-hydroxyethyl)-6-(5-methyl-2-((1-methyl-1H-pyrazol-5-yl)amino)pyrimidin-4-yl)-3,4-dihydropyrrolo[1,2-c]pyrimidin-1(2H)-one]: the values for the IC50 in experiment [3] and in experiment [2] were 12 nM and 77 nM, respectively.
Consider `O=C1N([C@H](CO)c2cccc(Cl)c2)Cc2cc(-c3nc(NC4CCOCC4)ncc3Cl)cn21` [Example 4, (S)-6-(5-Chloro-2-((tetrahydro-2H-pyran-4-yl)amino)pyrimidin-4-yl)-2-(1-(3-chlorophenyl)-2-hydroxyethyl)-1H-pyrrolo[1,2-c]imidazol-3(2H)-one], for which the results for the IC50 in experiment [1] and in experiment [2] were 6 nM and 82 nM, respectively.
In the case of `COc1cc(F)cc([C@@H](CO)N2Cc3cc(-c4nc(Nc5ccnn5C)ncc4C)cn3C2=O)c1` [Example 1, (S)-2-(1-(3-Fluoro-5-methoxyphenyl)-2-hydroxyethyl)-6-(5-methyl-2-((1-methyl-1H-pyrazol-5-yl)amino)pyrimidin-4-yl)-1H-pyrrolo[1,2-c]imidazol-3(2H)-one], the results for the IC50 in experiment [3], in experiment [1] and in experiment [2] were 9 nM, 2 nM and 90 nM, respectively.
Take `Cc1cnc(Nc2ccnn2C)nc1-c1cc2n(c1)C(=O)N(Cc1ccc(F)c(F)c1)C2` [Example 18, 2-(3,4-Difluorobenzyl)-6-(5-methyl-2-((1-methyl-1H-pyrazol-5-yl)amino)pyrimidin-4-yl)-1H-pyrrolo[1,2-c]imidazol-3(2H)-one]: the IC50 in experiment [1] stood at 16 nM.

The values are drawn from patent US20220185818A1, “PYRROLOHETEROCYCLIC DERIVATIVE, PREPARATION METHOD THEREFOR, AND APPLICATION THEREOF IN MEDICINE” (Jiangsu Hengrui Medicine Co., Ltd., priority 2019, published 2022).
